Columns and labels:
[1] = target: T1, IGF-1R (Homo sapiens, UniProt P08069); assay: Example B-1: IGF-1R Assay (PC3 cells stimulated with IGF1, AlphaLISA on cell lysates); format: cell-based; conditions: compound two hours, IGF1 200 ng/mL for 30 min, read-out: IC50, Biological Activity against IGF-1R (Table B1)
T1 construct: expressed in transfected cells
Method: 50K PC3 cells were seeded on day 1 in 50 μL of media in 96-well plate and incubated overnight at 37° C., 5% CO2. On day 2, all cells were expected to be at 80-90% confluency. Cells were starved for two hours by changing the media to 90 μL of EMEM serum-free media and incubated for 2 hours. Next, cells were treated with 10 μL of 10× concentrated and 3× serially diluted compounds for two hours. It makes 1× of compounds in 100 μL media. This was followed by stimulation of cells with 11×IGF1 for 30 min in 10 μL of serum-free EMEM media at the final concentration of 200 ng/mL.
The media was removed and replaced by 50 μL of 1× lysis buffer from the AlphaLISA kit (with 1× of cOmplete™ protease inhibitor). The plates were sealed, and cells were allowed to lyse for 10 min in the shaker before storing the plate at −20° C. until used. The AlphaLISA assay with processed cell lysates were performed as described in the protocol. Briefly, 10 μL of the undiluted sample were loaded to 384 well Optiplates and 5 μL of the acceptor mix (as described in the AlphaLISA kit) was added to each well. The plates were sealed and briefly vortexed followed by the incubation at RT for 3 hours. In the dark, 5 μL of donor mix was added to each well. All plates were sealed and stored at RT overnight. The plates were read in EnVision reader using standard AlphaLISA settings.
Compound activity was analyzed using CBIS data analysis suite (Cheminnovation, CA). Percentage inhibition was calculated using the following formula: % I-hibition=100%×(1−(mea−RLU of test sample−mean RLU of vehicle control)/(mean-RLU of EC80 control−mean RLU of vehicle control)). The activity for representative examples of the invention is shown in the following table, wherein A: IC50≤500 nM; B: 500 nM<IC50≤2 μM; C: 2 μM<IC50≤10 μM; D: IC50>10 μM.

[2] = target: T1, IGF-1R; assay: Example B-2: IGF-1R Assay (PathHunter cell lines, EC80 agonist challenge, chemiluminescent detection); format: cell-based; conditions: PathHunter cells, compound 60 minutes at 37° C., EC80 agonist 3 hours; read-out: IC50, Biological Activity against IGF-1R (Table B2)
Summary of the method: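 PathHunter cells were pre-incubated with compound for 60 min at 37° C (1% vehicle), then challenged with EC80 agonist for 3 h at room temperature. Chemiluminescent detection after 1 h gave % inhibition relative to EC80 and vehicle controls, from which IC50 was derived.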

T1 sequence (P08069 31-1367): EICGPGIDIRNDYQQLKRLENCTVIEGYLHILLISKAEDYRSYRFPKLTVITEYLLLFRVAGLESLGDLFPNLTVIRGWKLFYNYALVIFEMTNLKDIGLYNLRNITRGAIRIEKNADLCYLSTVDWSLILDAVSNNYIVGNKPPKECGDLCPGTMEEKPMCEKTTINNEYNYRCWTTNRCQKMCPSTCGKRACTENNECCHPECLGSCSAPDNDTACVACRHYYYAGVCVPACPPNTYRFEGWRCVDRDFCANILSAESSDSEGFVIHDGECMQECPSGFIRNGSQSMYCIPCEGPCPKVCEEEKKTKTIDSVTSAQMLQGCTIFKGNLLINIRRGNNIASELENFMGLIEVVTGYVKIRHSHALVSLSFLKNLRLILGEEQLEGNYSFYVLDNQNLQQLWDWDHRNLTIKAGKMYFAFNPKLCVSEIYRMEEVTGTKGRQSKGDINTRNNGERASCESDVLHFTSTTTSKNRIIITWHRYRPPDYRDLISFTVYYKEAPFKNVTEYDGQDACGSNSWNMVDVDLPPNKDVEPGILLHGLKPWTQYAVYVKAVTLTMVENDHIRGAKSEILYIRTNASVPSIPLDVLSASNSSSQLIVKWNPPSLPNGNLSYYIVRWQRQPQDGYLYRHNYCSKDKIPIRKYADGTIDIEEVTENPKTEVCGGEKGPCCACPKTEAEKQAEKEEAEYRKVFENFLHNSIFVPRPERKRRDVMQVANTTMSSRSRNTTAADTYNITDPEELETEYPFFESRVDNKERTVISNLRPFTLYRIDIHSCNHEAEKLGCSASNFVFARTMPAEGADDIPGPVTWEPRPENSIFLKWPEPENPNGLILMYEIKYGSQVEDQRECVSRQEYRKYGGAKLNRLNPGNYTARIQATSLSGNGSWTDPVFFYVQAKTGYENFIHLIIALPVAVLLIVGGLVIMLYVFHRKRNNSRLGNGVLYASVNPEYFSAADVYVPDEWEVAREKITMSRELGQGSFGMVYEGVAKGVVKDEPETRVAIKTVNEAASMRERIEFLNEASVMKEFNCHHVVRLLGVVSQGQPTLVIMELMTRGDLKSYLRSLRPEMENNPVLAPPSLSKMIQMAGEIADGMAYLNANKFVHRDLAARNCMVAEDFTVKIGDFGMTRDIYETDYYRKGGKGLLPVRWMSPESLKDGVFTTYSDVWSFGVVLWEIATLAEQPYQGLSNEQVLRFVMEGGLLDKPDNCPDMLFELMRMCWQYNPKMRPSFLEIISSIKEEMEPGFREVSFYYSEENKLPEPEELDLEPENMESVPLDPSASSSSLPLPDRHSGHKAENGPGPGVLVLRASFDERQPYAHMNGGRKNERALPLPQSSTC

## 5,5-dimethyl-1-((2-((2-methyl- 3-oxoisoindolin-5- yl)amino)pyridin-4-yl)methyl)- 3-(4- ((trifluoromethyl)thio)phenyl) amidazolidine-2,4-dione [Compound 272]
[1]
  IC50: ≤ 500 nM

## CC1(C)C(=O)N(c2ccc(SC(F)(F)F)cc2)C(=O)N1Cc1ccnc2[nH]cnc12 [Compound 2, 1-((3H-imidazo[4,5-b]pyridin-7-yl)methyl)-5,5-dimethyl-3-(4-((trifluoromethyl)thio)phenyl)imidazolidine-2,4-dione]
[1]
  IC50: ≤ 500 nM

## CC1(C)C(=O)N(c2ccc(SC(F)(F)F)cc2)C(=O)N1Cc1ncnc2[nH]ccc12 [Compound 3, 1-((7H-pyrrolo[2,3-d]pyrimidin-4-yl)methyl)-5,5-dimethyl-3-(4-((trifluoromethyl)thio)phenyl)imidazolidine-2,4-dione]
[1]
  IC50: ≤ 500 nM

## CC(C)(C)c1ccc(N2C(=O)N(Cc3ccnc4[nH]ccc34)C(C)(C)C2=O)cc1 [Compound 4]
[1]
  IC50: ≤ 500 nM

## CC1(C)C(=O)N(c2ccc(SC(F)(F)F)cc2)C(=O)N1Cc1ccnc2[nH]cc(Cl)c12 [Compound 5, 1-((3-chloro-1H-pyrrolo[2,3-b]pyridin-4-yl)methyl)-5,5-dimethyl-3-(4-((trifluoromethyl)thio)phenyl)imidazolidine-2,4-dione]
[1]
  IC50: ≤ 500 nM

## CC(C)(C)c1ccc(N2C(=O)N(Cc3ccnc4[nH]cc(Cl)c34)C(C)(C)C2=O)cc1 [Compound 6, 3-(4-(tert-butyl)phenyl)-1-((3-chloro-1H-pyrrolo[2,3-b]pyridin-4-yl)methyl)-5,5-dimethylimidazolidine-2,4-dione]
[1]
  IC50: ≤ 500 nM

## CC1(C)C(=O)N(c2ccc(C3(C(F)(F)F)CC3)cc2)C(=O)N1Cc1ccnc2[nH]ccc12 [Compound 7, 1-((1H-pyrrolo[2,3-b]pyridin-4-yl)methyl)-5,5-dimethyl-3-(4-(1-(trifluoromethyl)cyclopropyl)phenyl)imidazolidine-2,4-dione]
[1]
  IC50: ≤ 500 nM

## CC1(C)C(=O)N(c2ccc(S(=O)(=O)C(F)(F)F)cc2)C(=O)N1Cc1ccnc(N[C@H]2CCOC[C@@H]2F)c1 [Compound 334, 1-((2-(((3R,4S)-3-fluorotetrahydro-2H-pyran-4-yl)amino)pyridin-4-yl)methyl)-5,5-dimethyl-3-(4-((trifluoromethyl)sulfonyl)phenyl) imidazolidine-2,4-dione]
[2]
  IC50: 500 to 2000 nM

## CC1(C)C(=O)N(c2ccc(S(=O)(=O)C(F)(F)F)cc2)C(=O)N1Cc1ccnc(N[C@@H]2[C@@H]3COC[C@@H]32)c1 [Compound 335, 1-((2-(((1R,5S,6s)-3-oxabicyclo[3.1.0]hexan-6-yl)amino)pyridin-4-yl)methyl)-5,5-dimethyl-3-(4-((trifluoromethyl)sulfonyl)phenyl) imidazolidine-2,4-dione]
[2]
  IC50: 500 to 2000 nM

## CC(CF)Nc1cc(CN2C(=O)N(c3ccc(S(=O)(=O)C(F)(F)F)cc3)C(=O)C2(C)C)ccn1 (stereo not shown) [Compound 336, 1-((2-((1-fluoropropan-2-yl)amino)pyridin-4-yl)methyl)-5,5-dimethyl-3-(4-((trifluoromethyl)sulfonyl)phenyl) imidazolidine-2,4-dione]
[2]
  IC50: 500 to 2000 nM

## CC1(C)C(=O)N(c2ccc(S(C)(=O)=O)cc2)C(=O)N1Cc1ccnc(N[C@H]2[C@@H]3COC[C@@H]32)c1 [Compound 337, 1-((2-(((1R,SS,6r)-3-oxabicyclo[3.1.0]hexan-6-yl)amino)pyridin-4-yl)methyl)-5,5-dimethyl-3-(4-(methylsulfonyl)phenyl) imidazolidine-2,4-dione]
[2]
  IC50: > 10000 nM

## CO[C@H](C)CNc1cc(CN2C(=O)N(c3ccc(S(=O)(=O)C(F)(F)F)cc3)C(=O)C2(C)C)ccn1 [Compound 338, (R)-1-((2-((2-methoxypropyl)amino)pyridin-4-yl)methyl)-5,5-dimethyl-3-(4-((trifluoromethyl)sulfonyl)phenyl) imidazolidine-2,4-dione]
[2]
  IC50: ≤ 500 nM

## C[C@H](Nc1cc(CN2C(=O)N(c3ccc(S(=O)(=O)C(F)(F)F)cc3)C(=O)C2(C)C)ccn1)[C@@H]1CCCO1 [Compound 339, 5,5-dimethyl-1-((2-(((S)-1-((S)-tetrahydrofuran-2-yl)ethyl)amino)pyridin-4-yl)methyl)-3-(4-((trifluoromethyl)sulfonyl)phenyl) imidazolidine-2,4-dione]
[2]
  IC50: 500 to 2000 nM

## C[C@H](Nc1cc(CN2C(=O)N(c3ccc(S(=O)(=O)C(F)(F)F)cc3)C(=O)C2(C)C)ccn1)[C@H]1CCCO1 [Compound 340, 5,5-dimethyl-1-((2-(((S)-1-((R)-tetrahydrofuran-2-yl)ethyl)amino)pyridin-4-yl)methyl)-3-(4-((trifluoromethyl)sulfonyl)phenyl) imidazolidine-2,4-dione]
[2]
  IC50: 2000 to 10000 nM

## C[C@@H](Nc1cc(CN2C(=O)N(c3ccc(S(=O)(=O)C(F)(F)F)cc3)C(=O)C2(C)C)ccn1)[C@@H]1CCCO1 [Compound 341, 5,5-dimethyl-1-((2-(((R)-1-((S)-tetrahydrofuran-2-yl)ethyl)amino)pyridin-4-yl)methyl)-3-(4-((trifluoromethyl)sulfonyl)phenyl) imidazolidine-2,4-dione]
[2]
  IC50: 500 to 2000 nM

## C[C@@H](Nc1cc(CN2C(=O)N(c3ccc(S(=O)(=O)C(F)(F)F)cc3)C(=O)C2(C)C)ccn1)[C@H]1CCCO1 [Compound 342, 5,5-dimethyl-1-((2-(((R)-1-((R)-tetrahydrofuran-2-yl)ethyl)amino)pyridin-4-yl)methyl)-3-(4-((trifluoromethyl)sulfonyl)phenyl) imidazolidine-2,4-dione]
[2]
  IC50: 2000 to 10000 nM

## CC1(C)C(=O)N(c2ccc(S(=O)(=O)C(F)(F)F)cc2)C(=O)N1Cc1ccnc(N[C@H]2CCOCC2(F)F)c1 [Compound 343, (S)-1-((2-((3,3-difluorotetrahydro-2H-pyran-4-yl)amino)pyridin-4-yl)methyl)-5,5-dimethyl-3-(4-((trifluoromethyl)sulfonyl)phenyl) imidazolidine-2,4-dione]
[2]
  IC50: 2000 to 10000 nM

## Cn1cc(CNc2cc(CN3C(=O)N(c4ccc(S(=O)(=O)C(F)(F)F)cc4)C(=O)C3(C)C)ccn2)cn1 [Compound 344, 5,5-dimethyl-1-((2-(((1-methyl-1H-pyrazol-4-yl)methyl)amino)pyridin-4-yl)methyl)-3-(4-((trifluoromethyl)sulfonyl)phenyl) imidazolidine-2,4-dione]
[2]
  IC50: ≤ 500 nM

## CC(C)Nc1cc(CN2C(=O)N(c3ccc(S(=O)(=O)C4CC4)cc3)C(=O)C2(C)C)ccn1 [Compound 353, 3-(4-(cyclopropylsulfonyl)phenyl)-1-((2-(isopropylamino)pyridin-4-yl)methyl)-5,5-dimethylimidazolidine-2,4-dione]
[2]
  IC50: 500 to 2000 nM

## CC(C)Nc1cc(CN2C(=O)N(c3ccc(S(=O)(=O)C(C)(C)C)cc3)C(=O)C2(C)C)ccn1 [Compound 354, 3-(4-(tert-butylsulfonyl)phenyl)-1-((2-(isopropylamino)pyridin-4-yl)methyl)-5,5-dimethylimidazolidine-2,4-dione]
[2]
  IC50: 500 to 2000 nM

## CC1(Nc2cc(CN3C(=O)N(c4ccc(S(=O)(=O)C(F)(F)F)cc4)C(=O)C3(C)C)ccn2)CC1 [Compound 355, 5,5-dimethyl-1-((2-((1-methylcyclopropyl)amino)pyridin-4-yl)methyl)-3-(4-((trifluoromethyl)sulfonyl)phenyl)imidazolidine-2,4-dione]
[2]
  IC50: ≤ 500 nM

## CC1(C)C(=O)N(c2ccc(S(=O)(=O)C(F)(F)F)cc2)C(=O)N1Cc1ccnc(NC2CC2)c1 [Compound 356, 1-((2-(cyclopropylamino)pyridin-4-yl)methyl)-5,5-dimethyl-3-(4-((trifluoromethyl)sulfonyl)phenyl)imidazolidine-2,4-dione]
[2]
  IC50: ≤ 500 nM

## CC1(C)C(=O)N(c2ccc(S(=O)(=O)C(F)(F)F)cc2)C(=O)N1Cc1ccnc(N[C@H]2C[C@H]2F)c1 [Compound 357, 1-((2-(((1S,2R)-2-fluorocyclopropyl)amino)pyridin-4-yl)methyl)-5,5-dimethyl-3-(4-((trifluoromethyl)sulfonyl)phenyl)imidazolidine-2,4-dione]
[2]
  IC50: ≤ 500 nM

## CC(C)(C)c1ccc(N2C(=O)C(C)(C)N(Cc3ccnc4[nH]ccc34)C2=S)cc1 [Compound 407, 1-((1H-pyrrolo[2,3-b]pyridin-4-yl)methyl)-3-(4-(tert-butyl)phenyl)-5,5-dimethyl-2-thioxoimidazolidin-4-one]
[2]
  IC50: 500 to 2000 nM

## [2H]C([2H])([2H])Nc1cc(CN2C(=O)N(c3ccc(S(=O)(=O)C(F)(F)F)cc3)C(=O)C2(C)C)ccn1 [Compound 408]
[2]
  IC50: ≤ 500 nM

From patent US20250145585A1, “HETEROCYCLIC INHIBITORS OF IGF-1R FOR TREATMENT OF DISEASE” (HORIZON THERAPEUTICS IRELAND DAC, priority 2023, published 2025)
